{
  "source": "paper PMC8811955",
  "about": "(Biochemistry, 2022)",
  "system": "ySB267 (OSR4p-SEC4, Ca.Ste2)",
  "assay": "Peptide concentration-dependent growth of ySB267",
  "assay_type": "cell-based, Saccharomyces cerevisiae",
  "details": "ySB267, tested concentrations, 20 h",
  "data": [
    {"sequence": "GFRLTNFGYFEPG [Ca peptide]", "values": [
      {"measurement": "Peptide concentration above which maximum growth rate was reached", "value": "> 2.5", "unit": "nM"}
    ]}
  ]
}
